Earlier results as cited in US20170035783A1, “COMPOSITION FOR THE PREVENTION AND THERAPY OF TUMOR DISEASES” (SANOXSYS GMBH, priority 2014, published 2017).

Test system: breast cancer risk
Conditions: subcutaneous pellet, 2008-2010

Q: For `C[C@]12CC[C@H]3[C@@H](CCC4=CC(=O)CC[C@@]43C)[C@@H]1CC[C@@H]2O` [testosterone alone, testosterone], which “breast cancer risk in pre- and postmenopausal women” value is on record?
A: reduce the breast cancer risk
